Common to all, as to conditions: incubation time: 72 h
Test [1] deals with BT-474. Briefly: normalised viability (% of control), CellTiter-Blue; higher = more viable cells (about 100 = DMSO control). As to the method: (§1)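 DSRT, CellTiter-Blue viability, 72 h incubation. Signal is normalised to DMSO and benzethonium chloride controls. Value is the normalised response at dose 3.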
Background: The colour change of resazurin is a common sign of viable cells or microbes.

The subject of a further test is BT-549. The test is described as above. As to the method:
as §1

A further test relates to CAL-120. The description is as above. The protocol:
as §1

Test [2] has as its system CAL-148. Described as above. The protocol: as §1
For test [3], the system named is CAL-51. The description is as above. The protocol: as §1
In test [4] the test system is CAL-85-1. The description is as above. As to the method: as §1
A further test deals with DU-4475. Described as above. As to the method:
as §1

Test [5] relates to HCC1599. The test is described as above. As to the method: as §1
Another test relates to HCC1937. The description is as above. The protocol:
as §1

Test [6] has as its system HDQ-P1. Described as above. The protocol:
as §1

The test system of a further test is Hs578T. Described as above. The protocol:
as §1

Test [7] concerns MDA-MB-231. Described as above. As to the method:
as §1

The subject of test [8] is MDA-MB-436. The test is described as above. The protocol: as §1
The subject of test [9] is MDA-MB-453. Described as above. The protocol:
as §1

Test [10] has as its system MDA-MB-468. The description is as above. The protocol: as §1
For the next test, the system named is MFM-223. The description is as above. The protocol: as §1
The test system of test [11] is SK-BR-3. The test is described as above. The protocol:
as §1

Test [12] has as its system BT-474. Briefly: drug sensitivity score (DSS), CellTiter-Glo (DSS (AUC-based score)); higher = stronger drug effect (viability inhibition or cytotoxicity); extreme values may be limits of the assay. A digest of the protocol: (§2)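 The area under the fitted dose-response curve was used to calculate the drug sensitivity score. Cells from breast cancer lines were incubated for 72 h in 384-well plates with compound at 5 concentrations spaced 10-fold over a 10,000-fold range specific to each compound. Plates were read for CellTox Green and then CellTiter-Glo, and normalised to 0.1 % DMSO and a positive kill control.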
In general terms: In ATP-based viability assays light output follows the ATP content of the culture.

The subject of test [13] is CAL-148. The test is described as above. A digest of the protocol:
as §2

The subject of test [14] is CAL-51. The description is as above. A digest of the protocol:
as §2

The subject of test [15] is CAL-85-1. Described as above. A digest of the protocol: as §2
For test [16], the system named is HCC1599. Described as above. The method in brief:
as §2

The subject of test [17] is HDQ-P1. Described as above. A digest of the protocol:
as §2

The test system of the next test is MCF-10A. The test is described as above. The method in brief: as §2
The subject of test [18] is MDA-MB-231. The description is as above. A digest of the protocol:
as §2

The subject of test [19] is MDA-MB-436. The test is described as above. A digest of the protocol: as §2
In test [20] the test system is MDA-MB-453. Described as above. The method in brief: as §2
Test [21] relates to MDA-MB-468. Described as above. A digest of the protocol:
as §2

For test [22], the system named is SK-BR-3. The description is as above. The method in brief:
as §2

The record followed here is the supplement of paper PMC4862054.

Consider `COc1ccc(-c2cc3c(C)nc(N)nc3n([C@H]3CC[C@H](OCCO)CC3)c2=O)cn1`, for which the normalised viability with BT-474 [1] (100 nM) came to 67.8%; in the test with BT-549 (100 nM) it was 66.9%; in the test with CAL-120 (100 nM) it was 74.9%; in the test with CAL-148 [2] (10 nM) it was 98.1%; with CAL-51 [3] (10 nM) it was 93.3%; with CAL-85-1 [4] (10 nM), 95.3%. Besides, the normalised viability in the test with DU-4475 (10 nM) was 103%; in the test with HCC1599 [5] (100 nM) it was 73.6%; in the test on HCC1937 (100 nM), 65.8%; in the test on HDQ-P1 [6] (10 nM), 82%; in the test on Hs578T (100 nM), 60.5%; in the test on MDA-MB-231 [7] (100 nM) it was 63.2%. Also, the normalised viability in the test on MDA-MB-436 [8] (100 nM) is 80.6%; with MDA-MB-453 [9] (10 nM) it was 86.2%; with MDA-MB-468 [10] (100 nM) it was 77.3%; in the test with MFM-223 (100 nM), 68.8%; in the test with SK-BR-3 [11] (100 nM) it was 32.9%. Also, the drug sensitivity score was 16.4 with BT-474 [12]; 17.1 in the test on CAL-148 [13]; 22.6 in the test with CAL-51 [14]; 18.5 in the test on CAL-85-1 [15]; 9.17 in the test on HCC1599 [16]; 18.7 in the test with HDQ-P1 [17]. Moreover, the drug sensitivity score turned out to be 18.3 in the test on MCF-10A; 18.4 with MDA-MB-231 [18]; 14.4 in the test on MDA-MB-436 [19]; 21.9 with MDA-MB-453 [20]; 18.8 with MDA-MB-468 [21]; 22.1 with SK-BR-3 [22].

Consider `Cc1c(Cn2c(C)nc3c(C(=O)O)cc(N4CCOCC4)cc32)cccc1C(F)(F)F`, for which the drug sensitivity score in the test with BT-474 [12] was found to be 0; in the test with CAL-148 [13], 0; in the test with CAL-51 [14] it was 12.3; with CAL-85-1 [15], 0; with HCC1599 [16] it was 0; in the test with HDQ-P1 [17] it was 0. For the same compound, the drug sensitivity score in the test with MCF-10A came to 0; with MDA-MB-231 [18], 0; with MDA-MB-436 [19] it was 0.153; in the test on MDA-MB-453 [20] it was 0; with MDA-MB-468 [21], 3.65; in the test on SK-BR-3 [22] it was 0.

Take `Cc1cccc(-c2nn3c(c2-c2ccnc4ccc(C(N)=O)cc24)CCC3)n1`: the normalised viability worked out at 107% with BT-474 [1] (10 nM); 96.4% with BT-549 (10 nM); 95.1% with CAL-120 (10 nM); 99% in the test with CAL-148 [2] (1 nM); 96.1% with CAL-51 [3] (1 nM); 97.7% in the test on CAL-85-1 [4] (1 nM). Also, the normalised viability in the test on DU-4475 (1 nM) worked out at 90.5%; in the test on HCC1599 [5] (10 nM), 101%; in the test on HCC1937 (10 nM) it was 122%; with HDQ-P1 [6] (1 nM), 106%; in the test on Hs578T (10 nM), 96.2%; in the test with MDA-MB-231 [7] (10 nM), 99%. Besides, the normalised viability was determined as 127% with MDA-MB-436 [8] (10 nM); 112% in the test with MDA-MB-453 [9] (1 nM); 110% in the test with MDA-MB-468 [10] (10 nM); 96.8% in the test with MFM-223 (10 nM); 98.9% in the test on SK-BR-3 [11] (10 nM).

With `Cn1cc(CNCC2CCN(c3ncc(C(=O)NO)cn3)CC2)c2ccccc21`, the normalised viability was determined as 78.2% in the test with BT-474 [1] (10 nM); 103% in the test with BT-549 (10 nM); 58.3% in the test on CAL-120 (10 nM); 98.3% with CAL-148 [2] (1 nM); 102% with CAL-51 [3] (1 nM); 90.7% in the test with CAL-85-1 [4] (1 nM). For the same compound, the normalised viability in the test with DU-4475 (1 nM) was found to be 89%; in the test on HCC1599 [5] (10 nM), 73.7%; with HCC1937 (10 nM), 76.4%; in the test with HDQ-P1 [6] (1 nM) it was 100%; in the test on Hs578T (10 nM), 86.8%; with MDA-MB-231 [7] (10 nM) it was 99.5%. Besides, the normalised viability in the test with MDA-MB-436 [8] (10 nM) is 77.9%; in the test with MDA-MB-453 [9] (1 nM), 86.3%; in the test on MDA-MB-468 [10] (10 nM), 78.3%; in the test on MFM-223 (10 nM), 74.7%; in the test with SK-BR-3 [11] (10 nM), 35.8%.

`O=C(NC[C@H](O)CO)c1ccncc1Nc1ccc(I)cc1F`: the normalised viability worked out at 110% with BT-474 [1] (100 nM); 101% in the test with BT-549 (100 nM); 85.1% with CAL-120 (100 nM); 80.3% with CAL-148 [2] (10 nM); 99.2% in the test with CAL-51 [3] (10 nM); 90.6% with CAL-85-1 [4] (10 nM). The normalised viability with DU-4475 (10 nM) was 63.7%; in the test on HCC1599 [5] (100 nM) it was 101%; in the test with HCC1937 (100 nM) it was 88.7%; with HDQ-P1 [6] (10 nM) it was 97.9%; in the test on Hs578T (100 nM), 79.8%; in the test on MDA-MB-231 [7] (100 nM), 44.8%. The normalised viability amounted to 114% with MDA-MB-436 [8] (100 nM); 88.7% in the test with MDA-MB-453 [9] (10 nM); 87.3% in the test on MDA-MB-468 [10] (100 nM); 85.4% in the test with MFM-223 (100 nM); 78.1% in the test with SK-BR-3 [11] (100 nM).

Take `Nc1nc(=O)c2c([nH]1)NCC(CNc1ccc(C(=O)N[C@@H](CCC(=O)O)C(=O)O)cc1)N2C=O` (mixture of isomers) [Folinic acid]: the normalised viability amounted to 121% in the test on BT-474 [1] (9.9 nM); 101% in the test with BT-549 (9.9 nM); 111% in the test on CAL-120 (9.9 nM); 88.3% in the test with CAL-148 [2] (0.99 nM); 98.4% in the test with CAL-51 [3] (0.99 nM); 106% with CAL-85-1 [4] (0.99 nM). The normalised viability with DU-4475 (0.99 nM) is 105%; in the test on HCC1599 [5] (9.9 nM) it was 108%; in the test with HCC1937 (9.9 nM), 110%; in the test with HDQ-P1 [6] (0.99 nM) it was 140%; with Hs578T (9.9 nM) it was 96%; in the test on MDA-MB-231 [7] (9.9 nM) it was 103%. Also, the normalised viability turned out to be 128% with MDA-MB-436 [8] (9.9 nM); 104% with MDA-MB-453 [9] (0.99 nM); 119% in the test on MDA-MB-468 [10] (9.9 nM); 95.5% in the test on MFM-223 (9.9 nM); 104% with SK-BR-3 [11] (9.9 nM).

Regarding `CC/C(=C(\c1ccc(O)cc1)c1ccc(OCCN(C)C)cc1)c1ccccc1` [4-hydroxytamoxifen], the drug sensitivity score in the test on BT-474 [12] was found to be 0; in the test with CAL-148 [13] it was 0; in the test with CAL-51 [14] it was 0; with CAL-85-1 [15] it was 3.01; with HCC1599 [16], 0; in the test with HDQ-P1 [17], 0. Further, the drug sensitivity score with MCF-10A stood at 0; with MDA-MB-231 [18], 2.63; in the test on MDA-MB-436 [19], 1.6; in the test on MDA-MB-453 [20], 1.86; in the test with MDA-MB-468 [21], 4.87; with SK-BR-3 [22], 1.4.

For `CCCCC/C=C/C=C1/C(=O)C=C[C@@H]1C/C=C\CCCC(=O)O` [15D-PGJ2], the drug sensitivity score with BT-474 [12], in the test on CAL-148 [13], with CAL-51 [14], with CAL-85-1 [15], with HCC1599 [16] and in the test on HDQ-P1 [17] was 0 in each case. In addition, the drug sensitivity score with MCF-10A, with MDA-MB-231 [18], in the test with MDA-MB-436 [19], with MDA-MB-453 [20], in the test on MDA-MB-468 [21] and with SK-BR-3 [22] was 0 throughout.

Consider `CC(=O)OC[C@H]1O[C@@H]([S-])[C@H](OC(C)=O)[C@@H](OC(C)=O)[C@@H]1OC(C)=O.CCP(CC)CC.[Au+]` [Auranofin], for which the drug sensitivity score turned out to be 1.22 with BT-474 [12]; 1.24 with CAL-148 [13]; 11.7 in the test with CAL-51 [14]; 6.05 with CAL-85-1 [15]; 1.36 with HCC1599 [16]; 3.9 in the test with HDQ-P1 [17]. Also, the drug sensitivity score in the test on MCF-10A was 1.42; in the test with MDA-MB-231 [18], 4.38; in the test on MDA-MB-436 [19], 5.88; in the test on MDA-MB-453 [20], 6.93; in the test on MDA-MB-468 [21], 14.9; in the test on SK-BR-3 [22], 1.76.
